Experimental data as given in publication PMC7617869, “Molecular glues that inhibit deubiquitylase activity and inflammatory signaling” (Nature Structural & Molecular Biology, 2025).
Values joined by “and” are separate entries in the source; they are usually repeats but may differ in a detail not shown here. Identical values can stand only once.

How the values were obtained:
Assay type in all cases: cell-based, human
[1] = tested on: IFNAR1 ubiquitylation in MCF10A cells; test: TUBE pull-down of ubiquitylated IFNAR1 in MCF10A cells; design: Blot Mean, Background substracted: unit not given here; conditions: for IFNAR1 ubiquitylation: MCF10A, IFNα2 50 ng/mL, 5 µM, compared to DMSO, AP-5-145 and FX-171-A
Protocol: Tandem ubiquitin binding entity (TUBE) pull -down assay
The TUBE pull -down experiment was performed according to the manufacturer’s (UM401: TUBE 1 Agarose; LifeSensors) protocol with modifications. MCF10A cells (~20 x10 6) were pre -treated with the […] inhibitor panel (5 µM) or DMSO vehicle control for 1 hour followed by addition of recombinant IFNα2 (50 ng/m L, 592702, BioLegend). Following 1 hour incubation with IFNα2, cells were lysed in cell lysis buffer (50 mM Tris -HCl, pH 7.5, 0.15 M NaCl, 1 mM EDTA, 1% NP -40, 10% glycerol, 10 mM […]
NEM). Cell lysates were clarified by centrifugation at 15,000 g for 10 minutes at 4 °C. Clarified lysates were pre-cleared with control uncoupled agarose beads (UM400, LifeSensors) for 30 minutes on a rotator at 4 °C followed by centrifugation at 5,000 g for 2 minutes. Equal amount of pre-cleared lysates from individual samples were incubated with 20 µL Agarose-TUBE beads (pre-equilibrated with 1X Tris-buffered saline (TBS)) overnight on a rotator at 4 °C. Beads were collected by centrifugation at 5,000 g for 2 minutes at RT followed by four stringent washes with 1X TBST (TBS, 0.1% Tween-20). TUBE-pulldown proteins were eluted by boiling Agarose-TUBE beads in 2X LDS sample buffer supplemented with […] DTT for 15 minutes. Eluted proteins were resolved on NuPAGE™ 4–12% Bis–Tris gel followed by Western blotting using anti-IFNAR1 antibody (ab124764, Abcam).
PBMCs in vitro experiments
Peripheral blood mononuclear cells (PBMCs) from healthy and SSc donors were separated using density gradient method (Leucosep™, Greiner Bio-One International) from EDTA anticoagulated peripheral blood; isolated cells were washed twice by PBS. PBMCs were then incubated in RPMI1640 […]
For healthy PBMCs, cells were stimulated with 20 ng/mL of IFN (+/- compounds or DMSO). For SSc PBMCs, cells were in basal conditions with no additional IFN stimulation. Cells were centrifuged at 300 g for 10 minutes. Supernatant was removed and subjected to R&D Systems DY266 Human CXCL10/IP-10 DuoSet ELISA (Biotechne) in duplicates, according to manufacturer’s guidance. Concentration of CXCL10 was determined according to a 4-parameter logistic regression standard curve. RNA was extracted from cell pellets using TRIzol™ (ThermoFisher Scientific, Waltham, MA) and processed using Quick-RNA Miniprep Kit (Zymo Research) as per the manufacturer’s instruction.
For Type I IFN signalling analysis, the human IFN I RT2 Profiler PCR Array (Qiagen, PAMM-016ZE) was performed on available RNA from healthy (n=3) and SSc (n=9) donors. RNA was converted to cDNA using RT2 First Strand Kit (Qiagen). Next, the cDNA was mixed with RT2 SYBR Green Mastermix (Qiagen, Venlo). Successful PCR performance was confirmed by assay tests for genomic DNA contamination, RNA sample quality, as well as single melt curve determination and <35 Ct for each gene, leading to validated gene expression of 67 genes. Relative expression for each gene was determined, firstly by ∆CT calculated using the geometric mean of 4 housekeeping genes (ACTB, GAPDH, HPRT1, RPLP0), followed by 2^(-∆CT), and expressed as fold change to control, according to manufacturer’s guidance. IFN2α-induced ISGs in healthy donors were determined using a Student’s t-test (two-tail distribution and equal variances) on the triplicate fold change in 2^(-ΔCT) values between […]
donors). Heatmaps were generated using the “pheatmap” function in R (v4.0.2) and RStudio (v1.3.1093) applying row scaling to standardise the expression data across samples (R core team 2020.
R Foundation for Statistical Computing). The IFN2α inducible genes determined in healthy donors […]
171-C. To account for Type I IFN signalling heterogeneity across samples, the mean 2^(-∆CT) for each […]
relative gene expression, illustrated as a fold change and visualised in log2. The Type I IFN signalling array data for the patient samples is included in Source Data Figure 6, Extended Data Fig. 9.

[2] = tested on: IFNAR1 surface levels in THP-1 cells; test: THP-1 IFNAR1 surface levels (FACS); conditions: for IFNAR1 surface levels (Fig. 5h): IFN + compound, No IFN = 100; for IFNAR1 surface levels: THP-1, hIFNα2 25 ng/ml, 4 μM, 16 h
Protocol: (§1) THP-1 in vitro experiments
(§2) THP-1-DualTM cells (InvivoGen), derived from a human monocytic cell line, isolated from a patient with acute monocytic leukaemia, were cultured as per manufacturer’s guidance. Cells were seeded at 1x10^6 cells/mL in RPMI1640 media containing 10% fetal bovine serum (FBS), 1% penicillin-streptomycin (PS) (Gibco Laboratories) with DMSO (0.1%) (control) or in media containing JMS-175- […]
(§3) ng/mL) (Merck Life Science), ODN 2216 (1 µM) (Miltenyi Biotec), or Poly:IC (1 µg/mL) (InvivoGen).
(§4) Tofacitinib (Cambridge Biosciences) at 0.4 µM was used for comparison against a known JAK inhibitor.
(§5) Cells were centrifuged at 300 g for 5 minutes. Supernatant was removed and subjected to simultaneous study of the NF -κB pathway, by monitoring the activity of secreted alkaline phosphatase reporter (SEAP), and the IRF pathway, by assessing the activity o f a secreted Lucia luciferase using QUANTI - Blue ™ Solution and QUANTI -Luc™ 4 Lucia/Gaussia (InvivoGen), respectively, as per manufacturer’s instructions. Pelleted cells were used for FACS analysis using IFNα/β R1 APC-conjugated antibody or isotype control (Biotechne, FAB245A and IC002A), or unstained staining procedure with and without Zombie GreenTM (Biolegend). Samples were analysed using CytoFlex LX (Beckman) (50,000 live cells per condition). Median fluorescence intensity for APC channel gated on single cell live cells was analysed and compared as a percentage to control (no stimulation condition). […]

[3] = tested on: ISRE in THP-1 cells (TLR3 agonist polyI:C); test: THP-1 ISRE luciferase reporter, polyI:C stimulation; conditions: polyI:C 1 µg/mL, 4 μM compound, 16 h
Protocol: as §1, §2, §3, §4, §5

[4] = TUBE pull-down IFNAR1 blot densitometry, biological replicates 1-3

Row | Compound | Fold Change ([1]; TUBE pull-down IFNAR1 blot densitometry, relative to DMSO = 1, biological replicates 1-3) | Blot Mean, Background substracted [1, 4] | IFNAR1 surface levels (Fig. 5h) [2] | IFNAR1 surface levels [2] | ISRE luciferase signal in THP-1 supernatant [3] | IFNAR1 ubiquitylation [1]
1 | Cn1cc(NC(=O)c2c(Cl)cccc2Cl)c(C(=O)NC2CCN(C(=O)c3c(Cl)cccc3Cl)CC2)n1 [AP-5-145] | 1.205 and 1.413 and 1.158 | 48.742 and 43.008 and 72.446 | 65.8984 and 82.4668 and 66.4812 | no significant reduction | 502.333 and 324.667 and 347.333 | 
2 | O=C(NC1C2CNCC21)c1nn(C(=O)c2c(Cl)cccc2Cl)cc1NC(=O)c1c(Cl)cccc1Cl (stereo not drawn) [FX-171-C] |  | 52.149 and 49.341 and 95.856 | 56.2651 and 56.964 and 56.0526 | reduction in IFNAR1 surface levels | 374 and 491 and 321 | elevated levels of IFNAR1 ubiquitylation
3 | O=C(NC1CCNCC1)c1nn(C(=O)c2c(Cl)cccc2Cl)cc1NC(=O)c1c(Cl)cccc1Cl [JMS-175-2] |  | 63.299 and 57.607 and 102.609 | 48.4567 and 45.7565 and 33.0649 | reduction in IFNAR1 surface levels | 486.333 and 543 and 491 | elevated levels of IFNAR1 ubiquitylation
